Target: wild-type un-phosphorylated FGFR3 protein (Homo sapiens, UniProt P22607)
Test: FGFR Enzymatic Assay (FRET detection of peptide phosphorylation)
Type: biochemical
Details: pre-incubated for 4 hours, read-out: FGFR3_Ki
Procedure: The inhibitor potency of the exemplified compounds was determined in an enzyme discontinuous assay that measures peptide phosphorylation using FRET measurements to detect product formation. Inhibitors were serially diluted in DMSO and a volume of 0.2 μL was transferred to the wells of a 384-well plate. A 5 μL/well volume of enzyme isoforms of FGFR (−1, −2, −3 wild-type and mutant isoforms, −4) including phosphorylated and un-phosphorylated proteins diluted in assay buffer (50 mM HEPES, 10 mM MgCl2, 1 mM EGTA, 0.01% Tween-20, 5 mM DTT, pH 7.5) was added to the plate and pre-incubated with inhibitor for 5 to 15 minutes at ambient temperature. Appropriate controls (enzyme blank and enzyme with no inhibitor) were included on the plate. […] The ATP Km values were pre-determined in a separate series of experiments. The reaction plate was incubated at 25° C. for 1 hr and the reactions were ended with the addition of 5 μL/well of quench solution (50 mM Tris, 150 mM NaCl, 0.5 mg/mL BSA, pH 7.8; 45 mM EDTA, 600 nM staurosporin, with Perkin Elmer Lance Reagents at 3.75 nM Eu-antibody PY20 and 180 nM APC-Streptavidin). The plate was allowed to equilibrate for ˜10 minutes at ambient temperature before scanning on a PheraStar plate reader (BMG Labtech) instrument.
Either GraphPad prism or XLfit was used to analyze the data. The IC50 values were derived by fitting the data to a four parameter logistic equation producing a sigmoidal dose-response curve with a variable Hill coefficient. Prism equation: Y=Bottom+(Top−Bottom)/(1+10^((LogIC50−X)*Hill slope)); XLfit equation: Y=(A+((B−A)/(1+((X/C)^D)))) where X is the logarithm of inhibitor concentration and Y is the response.
The data in Table 1 was measured in wild-type un-phosphorylated FGFR3 protein.

Chain of wild-type un-phosphorylated FGFR3 protein (P22607 23-806): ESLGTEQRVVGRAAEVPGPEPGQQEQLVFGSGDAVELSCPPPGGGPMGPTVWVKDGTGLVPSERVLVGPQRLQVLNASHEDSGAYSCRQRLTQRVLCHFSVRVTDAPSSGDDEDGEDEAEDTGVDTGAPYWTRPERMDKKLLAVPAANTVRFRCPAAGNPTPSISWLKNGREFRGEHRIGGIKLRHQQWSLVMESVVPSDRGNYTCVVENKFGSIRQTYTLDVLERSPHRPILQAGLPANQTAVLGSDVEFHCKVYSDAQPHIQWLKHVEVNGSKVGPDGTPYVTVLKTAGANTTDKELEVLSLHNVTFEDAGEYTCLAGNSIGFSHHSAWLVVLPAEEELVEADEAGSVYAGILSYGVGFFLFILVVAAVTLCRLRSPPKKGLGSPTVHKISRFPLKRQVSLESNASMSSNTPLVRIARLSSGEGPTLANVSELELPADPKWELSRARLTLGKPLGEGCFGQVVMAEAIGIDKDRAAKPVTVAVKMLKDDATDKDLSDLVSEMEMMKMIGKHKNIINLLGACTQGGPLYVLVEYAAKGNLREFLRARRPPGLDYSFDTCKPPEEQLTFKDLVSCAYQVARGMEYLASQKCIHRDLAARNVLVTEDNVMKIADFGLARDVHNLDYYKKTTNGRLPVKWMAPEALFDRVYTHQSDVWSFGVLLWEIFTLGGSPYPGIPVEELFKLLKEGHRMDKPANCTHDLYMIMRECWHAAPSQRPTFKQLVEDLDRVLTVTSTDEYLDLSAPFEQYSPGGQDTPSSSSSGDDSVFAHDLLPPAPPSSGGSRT

| Structure (SMILES) | Ki |
| --- | --- |
| Cn1cc(-c2cnc3ccn4c(-c5ccco5)c(-c5ccccc5Cl)nc4c3c2)cn1 [Example 6, 2-(2-Chlorophenyl)-3-(furan-2-yl)-9-(1-methyl-1H-pyrazol-4-yl)imidazo[2,1-f][1,6]naphthyridine] | 10 to 100 nM |
| CC(C)(O)Cn1cc(-c2cnc3ccn4c(CO)c(-c5c(Cl)cccc5Cl)nc4c3c2)cn1 [Example 76, 1-(4-(2-(2,6-Dichlorophenyl)-3-(hydroxymethyl)imidazo[2,1-f][1,6]naphthyridin-9-yl)-1H-pyrazol-1-yl)-2-methylpropan-2-ol] | < 10 nM |
| N#CCn1cc(-c2cnc3ccn4c(CO)c(-c5c(Cl)cccc5Cl)nc4c3c2)cn1 [Example 77, 2-(4-(2-(2,6-Dichlorophenyl)-3-(hydroxymethyl)imidazo[2,1-f][1,6]naphthyridin-9-yl)-1H-pyrazol-1-yl)acetonitrile] | < 10 nM |
| Cn1cc(-c2cnc3ccn4cc(-c5c(F)cccc5Cl)nc4c3n2)cn1 [Example 14, 9-(2-Chloro-6-fluorophenyl)-2-(1-methyl-1H-pyrazol-4-yl)imidazo[1′,2′:1,2]pyrido[3,4-b]pyrazine] | 10 to 100 nM |
| Cc1cc(CO)ccc1-c1nc2c3cc(-c4cnn(C)c4)cnc3ccn2c1C [Example 30, (3-Methyl-4-(3-methyl-9-(1-methyl-1H-pyrazol-4-yl)imidazo[2,1-f][1,6]naphthyridin-2-yl)phenyl)methanol] | 10 to 100 nM |
| CN(C)C(=O)N1CCC(n2cc(-c3cnc4ccn5cc(-c6c(Cl)cccc6Cl)nc5c4c3)cn2)C1 (stereo not drawn) [Example 50, 3-(4-(2-(2,6-Dichlorophenyl)imidazo[2,1-f][1,6]naphthyridin-9-yl)-1H-pyrazol-1-yl)-N,N-dimethylpyrrolidine-1-carboxamide] | < 10 nM |

Further lines, results first:

| Ki | Structure (SMILES) |
| --- | --- |
| 10 to 100 nM | COc1cccc(F)c1-c1nc2c3cc(-c4cnn([C@H]5CCN(C(=O)CO)C5)c4)cnc3ccn2c1C [Example 28, (S)-1-(3-(4-(2-(2-Fluoro-6-methoxyphenyl)-3-methylimidazo[2,1-f][1,6]naphthyridin-9-yl)-1H-pyrazol-1-yl)pyrrolidin-1-yl)-2-hydroxyethan-1-one] |
| < 10 nM | CC(=O)N1CCC2CC2(n2cc(-c3cnc4ccn5c(C)c(-c6c(Cl)cccc6Cl)nc5c4c3)cn2)C1 (stereo not drawn) [Example 60, 1-(1-(4-(2-(2,6-Dichlorophenyl)-3-methylimidazo[2,1-f][1,6]naphthyridin-9-yl)-1H-pyrazol-1-yl)-3-azabicyclo[4.1.0]heptan-3-yl)ethan-1-one] |
| < 10 nM | Cc1c(-c2c(Cl)cccc2Cl)nc2c3cc(-c4cnn(C56CC5CN(C(=O)CO)C6)c4)cnc3ccn12 (stereo not drawn) [Example 54, 1-(1-(4-(2-(2,6-Dichlorophenyl)-3-methylimidazo[2,1-f][1,6]naphthyridin-9-yl)-1H-pyrazol-1-yl)-3-azabicyclo[3.1.0]hexan-3-yl)-2-hydroxyethan-1-one] |
| < 10 nM | CC(=O)N1CC[C@H](n2cc(-c3cnc4ccn5c(CO)c(-c6c(Cl)cccc6Cl)nc5c4c3)cn2)C1 [Example 56, (S)-1-(3-(4-(2-(2,6-Dichlorophenyl)-3-(hydroxymethyl)imidazo[2,1-f][1,6]naphthyridin-9-yl)-1H-pyrazol-1-yl)pyrrolidin-1-yl)ethan-1-one] |
| 10 to 100 nM | CC(=O)N1CC(c2cncc(-c3cnc4ccn5c(C)c(-c6c(Cl)cccc6Cl)nc5c4c3)c2)C1 [Example 62, 1-(3-(5-(2-(2,6-Dichlorophenyl)-3-methylimidazo[2,1-f][1,6]naphthyridin-9-yl)pyridin-3-yl)azetidin-1-yl)ethan-1-one] |
| < 10 nM | Cc1c(-c2c(Cl)cccc2Cl)nc2c3cc(-c4cnn([C@H]5CCN(C(=O)CO)C5)c4)cnc3ccn12 [Example 53, (S)-1-(3-(4-(2-(2,6-Dichlorophenyl)-3-methylimidazo[2,1-f][1,6]naphthyridin-9-yl)-1H-pyrazol-1-yl)pyrrolidin-1-yl)-2-hydroxyethan-1-one] |

— patent US12552804B2, “Tricyclic heterocycles as FGFR inhibitors” (Incyte Corporation, priority 2019, dated 2026)
